# Source: patent US20220184084A1, “COMPOSITIONS AND METHODS FOR TREATING CUSHING'S DISEASE” (The Regents of the University of California, priority 2019, published 2022)
# Where two headings read alike, the source gives them in different places. Starred links: 1 amine or outer side, 2 acyl side, 3 side chain; linkers in the order of their positions; H or OH if unused. Non-standard residues stand in square brackets, D forms with d. Residues, ends and D or L forms follow the SMILES beside them. Groups on a side chain read outwards from the residue. *: point of attachment. Ethylenediamine = C(CN[*:2])N[*:1]; Hyp = O=C(O)[C@@H]1C[C@@H](O)CN1; Phg = N[C@H](C(=O)O)c1ccccc1; CO = O=C([*:1])[*:2]; Bn = c1ccc(C*)cc1
# Experiments:
# AtT20 cells [1] = test: ACTH AlphaLISA assay, screen of kinase inhibitor library; assay type: cell-based, murine; conditions: Mus musculus, read-out: ACTH Inhibition (%)
# Experimental: The latter mouse antibody is then trapped by an anti-mouse IgG (Fc specific) conjugated to acceptor beads, bringing the donor and acceptor beads into close proximity. […] Conversely if the cell SN ACTH is reduced following treatment with an ACTH inhibitor, the Alpha signal is restored.
# One column (#1) with vehicle treatment only, and two cell-free columns (#23 & 24) were included as AlphaLISA signal negative and positive controls respectively to monitor assay performance.
# Thereafter, 2 μL of cell culture supernatant was transferred from the black culture plate into a white low volume assay plate (Corning) using Vprep (Agilent) equipped with Velocity 11 Biocel 1800 (Agilent). 1 μL of biotinylated ACTH peptide solution (AnaSpec) and 1 μL of anti-ACTH antibody solution (EMD) is added sequentially into the low volume assay plate using AquaMax DW4 (Molecular Devices) Following a 1 h incubation, 1 μL donor and acceptor beads (PerkinElmer) were added to the assay plate using ELx405 (BioTek). Optical seals (Sigma) are used to minimize assay evaporation during the subsequent 2 h incubation. The assay plate is then transferred by a Thermo Spinnaker robotic arm to Envision (PerkinElmer) for AlphaLISA signal detection.
# AtT20 cells [2] = test: Nuclei staining (Hoechst 33342 dye), screen of kinase inhibitor library; assay type: cell-based, murine; conditions: Mus musculus; for inhibition at 1 µM / inhibition at 10 µM: read-out: Nuclei Inhibition (%)
# Experimental: This plate was incubated in a Cytomat 6000 sealed with gas permeable polyurethane film (USA Scientific) and imaged on ImageXpress^XL (Molecular Devices). All these instruments are integrated on a Beckman Coulter SAMI automation platform which tracks timing to ensure accuracy and consistency of all steps.
# Nurr1 = Nurr1 interaction with HDACs and Nurr1 phosphorylation by immunoprecipitation; assay type: cell-based
# Text: FIG. 7F depicts the interactions between Nurr1, HDACs, and Nurr1 phosphorylation, as detected by immunoprecipitation.
# AtT20 cells [3] = test: Histone acetylation (H3K9) and AKT pathway activation in AtT20 cells; assay type: cell-based, murine; conditions: 3 days
# AtT20 cells [4] = test: ACTH secretion in AtT20 cells (ELISA); assay type: cell-based, murine; conditions: for EC50: Mus musculus, read-out: EC50 for ACTH secretion inhibition
# Experimental: The EC50 for ACTH secretion inhibition were calculated using a sigmoidal dose-response curve (GraphPad Prism).
# FIG. 6F depicts the results of a study wherein AtT20 cells were treated with panobinostat and burparlisib simultaneously to detect the effects on ACTH secretion.
# [5] = test system: AtT20 cells inoculated into athymic nude mice; test: Xenograft model of Cushing disease; assay type: in vivo, athymic nude mice (Nu/J strain); conditions: 300 mg/kg oral gavage daily, 18 days
# Experimental: Animal bodyweight was recorded daily. […] Tumor size was recorded daily. […] Tumor size was measured post euthanizer. […] Tumor weight was measured post euthanizer. […] Blood samples were collected by cardiac puncture and plasma ACTH levels were measured by ELISA. […] Blood samples were collected by cardiac puncture and plasma corticosterone levels were measured by ELISA. […] AtT20 cells (2×10^5/animal) were injected into the hind flank region of athymic nude mice (Nu/J strain from Jackson lab). […] During 18-days of CUDC-907-treatment, animal bodyweight (FIG. 4A) and tumor sizes (FIG. 4B) were measured daily. Upon experiment completion, the animals were euthanized and tumors were harvested, and weighed. Blood samples were collected by cardiac puncture.
# [6] = test system: human corticotroph tumor primary cultures; test: ACTH secretion in human corticotroph tumor primary culture (ELISA); assay type: cell-based; conditions: Vehicle 3.7±0.2
# AtT20 cells [7] = test: Expression of POMC regulators (Nurr1, Nur77, LXRα, GR) after treatment; assay type: cell-based, murine
# Text: Accordingly, the expressions of several nuclear receptors, known as POMC positive and negative regulators, including Nurr1 (NR4A2), Nur77 (NR4A1), LXRα (NR1H3), and GR (NR3C1), were examined.
# AtT20 cells [8] = test: AtT20 cell proliferation IC50 (CellTiter-Glo); assay type: cell-based, murine; conditions: read-out: IC50 for proliferation inhibition
# Experimental: The IC50 values were calculated using sigmoidal dose-response curve (GraphPad Prism).
# [9] = test system: human corticotroph tumor primary cultures; test: Proliferation of human corticotroph tumor primary cultures (CellTiter-Glo); assay type: cell-based; conditions: two human primary corticotroph tumor cultures, 3 days, read-out: IC50 anti-proliferative effect
# AtT20 cells [10] = test: POMC mRNA expression in AtT20 cells by real time PCR; assay type: cell-based, murine; conditions: 20 nM to 1.25 nM, 24 h, RT-PCR
# Experimental: The POMC mRNA expression […] values were determined by real time PCR.
# FIG. 6I depicts the results of a study wherein AtT20 cells were treated with panobinostat and burparlisib simultaneously to detect the effects on POMC mRNA expression.
# [11] = test system: AtT20 cells stably transfected with POMC promoter driven luciferase; test: POMC promoter-driven luciferase assay (POMC-Luc); assay type: cell-based, murine; conditions: 1 day
# Text: Using a POMC promoter-driven luciferase assay, the direct actions of the aforementioned compounds on POMC transcription was examined.
# AtT20 cells [12] = test: c-Myc and cell cycle inhibitor mRNA by real time PCR; assay type: cell-based; conditions: murine corticotroph tumor cells, 5 nM, 24 h
# [13] = test system: murine corticotroph tumor Caspase-3/7; test: Caspase-Glo3/7 assay; assay type: cell-based; conditions: 24 hours
# [14] = background statement; cited from earlier work
# AtT20 cells [15] = test: Relative proliferation rate, panobinostat and buparlisib alone and combined; assay type: cell-based, murine; conditions: Veh 1.0±0.06
# Experimental: FIG. 6G depicts the results of a study wherein AtT20 cells were treated with panobinostat and burparlisib simultaneously to detect the effects on cell proliferation.
# [16] = 72 h, 100 nM, AtT20 cells, 3 days
# [17] = 72 h, 1 μM, AtT20 cells, 3 days
# [18] = 72 h, 10 μM, AtT20 cells, 3 days
# [19] = Mus musculus, AtT20, 72 h, 3 day-treatment
# [20] = Mus musculus, AtT20, 72 h, 3 days
structure (smiles),measurement,setting,value
CC[C@@H]1C(=O)N(C)c2cnc(Nc3ccc(C(=O)NC4CCN(C)CC4)cc3OC)nc2N1C1CCCC1 [BI 2536],inhibition at 0.1 µM,"AtT20 cells [1]; AtT20, 72 h",54.9%
same,inhibition at 1 µM,"AtT20 cells [1]; AtT20, 72 h",82%
same,inhibition at 10 µM,"AtT20 cells [1]; AtT20, 72 h",77.7%
same,inhibition at 1 µM,"AtT20 cells [2]; AtT20, 72 h",92.3%
same,inhibition at 10 µM,"AtT20 cells [2]; AtT20, 72 h",94%
COc1ccc(-c2nc(N3CCOCC3)c3sc(CN(C)c4ncc(C(=O)NO)cn4)cc3n2)cn1 [CUDC-907],"Nurr1 interaction with HDAC-1, 2, 3, but not HDAC10",Nurr1,unaffected
same,Nurr1 serine/threonine phosphorylation levels,Nurr1,dramatically inhibited
same,AKT activation and downstream target 4E-BPI,AtT20 cells [3],blocked
same,histone acetylation Ac-H3-K9,AtT20 cells [3],elevated histone acetylation
same,reduction of ACTH secretion,AtT20 cells [4]; 1.25 nM,59%
same,ACTH secretion,"AtT20 cells [4]; 1.25 nM, 24 h, Vehicle 30±19",12 ± 2.4 ng/mL
same,ACTH secretion,"AtT20 cells [4]; 2.5 nM, 24 h, Vehicle 30±19",12 ± 5.7 ng/mL
same,EC50,AtT20 cells [4],1 nM
same,ACTH secretion,"AtT20 cells [4]; concentration not given, 24 h, Vehicle 30±19",15 ± 2.2 ng/mL
same,reduction of plasma ACTH level,[5]; vs controls,77%
same,reduction of plasma corticosterone level,[5]; vs controls,85%
same,reduction in tumor size,[5]; vs vehicle,~35%
same,reduction in tumor weight,[5]; vs vehicle,44%
same,tumor weight,[5]; Control 0.098±0.02,0.04±0.006 gram
same,tumor volume,[5]; Control 0.17±0.05,0.065±0.02 cm^3
same,Plasma corticosterone,[5]; Control 180±87,27 ± 4.66 ng/mL
same,Plasma ACTH,[5]; Control 206.1±27.2,47.4 ± 7.3 pg/mL
same,inhibition at 0.1 µM,AtT20 cells [1]; [16],84.7%
same,inhibition at 1 µM,AtT20 cells [1]; [17],80.1%
same,inhibition at 10 µM,AtT20 cells [1]; [18],80%
same,ACTH secretion,[6],1.9 ± 0.001 ng/mL
same,Nurr1 expression,"AtT20 cells [7]; 1.25 nM, 24 h",reduction in Nurr1 expression
same,LXRα expression,"AtT20 cells [7]; 5 and 10 nM, 24 h",reductions
same,Nur77 expression,"AtT20 cells [7]; 5 and 10 nM, 24 h",reductions
same,Nurr1 protein expression,AtT20 cells [7]; 6 h-treatment,dramatic inhibition
same,GR expression,AtT20 cells [7]; 24 h,minor effects
same,Nurr1 mRNA expression,AtT20 cells [7]; real time PCR,inhibition of Nurr1 mRNA expression
same,IC50,AtT20 cells [8]; 3 day-treatment,5.1 nM
same,IC50,AtT20 cells [8]; [19],5 nM
same,IC50,"[9]; Homo sapiens, 72 h",3 nM
same,IC50,[9],5 nM
same,effect on POMC mRNA expression,AtT20 cells [10],potent reduction in POMC mRNA expression
same,EC50,"[11]; Mus musculus, 24 h, read-out: EC50 for POMC transcription inhibition",0.5 nM
same,inhibition at 0.1 µM,"AtT20 cells [2]; 72 h, AtT20 cells, 3 days",90.1%
same,inhibition at 1 µM,AtT20 cells [2]; [17],99.2%
same,inhibition at 10 µM,AtT20 cells [2]; [18],99.3%
same,c-Myc mRNA expression,AtT20 cells [12],increased
same,activity of caspase-3 and -7,[13],increasing the activity
COc1ccc(-c2ccc3ncc4c(c3c2)n(-c2ccc(N3CCNCC3)c(C(F)(F)F)c2)c(=O)n4C)cn1 [BGT226 (NVP-BGT226)],inhibition at 0.1 µM,AtT20 cells [1]; [16],57.5%
same,inhibition at 1 µM,AtT20 cells [1]; [17],86.3%
same,inhibition at 10 µM,AtT20 cells [1]; [18],88.2%
same,inhibition at 0.1 µM,"AtT20 cells [2]; 72 h, AtT20 cells, 3 days",94.3%
same,inhibition at 1 µM,AtT20 cells [2]; [17],99%
same,inhibition at 10 µM,AtT20 cells [2]; [18],95.4%
CS(=O)(=O)N1CCN(Cc2cc3nc(-c4cccc5[nH]ncc45)nc(N4CCOCC4)c3s2)CC1 [pictilisib],IC50,AtT20 cells [8]; [20],800 nM
same,effect on POMC transcription,[11],increased POMC transcription at higher doses
NCCCC[C@@H]1NC(=O)[C@@H](Cc2c[nH]c3ccccc23)NC(=O)[C@H](c2ccccc2)NC(=O)[C@@H]2C[C@@H](OC(=O)NCCN)CN2C(=O)[C@H](Cc2ccccc2)NC(=O)[C@H](Cc2ccc(OCc3ccccc3)cc2)NC1=O [pasireotide] (cyclo([Hyp]([CO-Ethylenediamine])[Phg][dW]KY(Bn)F)),patients in whom the drug causes diabetes,[14],approximately 50%
Cc1nc(Nc2n[nH]c3c2CN(C(=O)N[C@H](CN(C)C)c2ccccc2)C3(C)C)c2sccc2n1 [PF-3758309],inhibition at 0.1 µM,AtT20 cells [1]; [16],70.4%
same,inhibition at 1 µM,AtT20 cells [1]; [17],70.2%
same,inhibition at 10 µM,AtT20 cells [1]; [18],77.5%
same,inhibition at 0.1 µM,"AtT20 cells [2]; 72 h, AtT20 cells, 3 days",91.5%
same,inhibition at 1 µM,AtT20 cells [2]; [17],95.6%
same,inhibition at 10 µM,AtT20 cells [2]; [18],95.2%
CCc1cnn2c(NCc3ccc[n+]([O-])c3)cc(N3CCCC[C@H]3CCO)nc12 [Dinaciclib (SCH727965)],inhibition at 0.1 µM,AtT20 cells [1]; [16],58.1%
same,inhibition at 1 µM,AtT20 cells [1]; [17],77.3%
same,inhibition at 10 µM,AtT20 cells [1]; [18],69.2%
same,inhibition at 0.1 µM,"AtT20 cells [2]; 72 h, AtT20 cells, 3 days",92%
same,inhibition at 1 µM,AtT20 cells [2]; [17],98.3%
same,inhibition at 10 µM,AtT20 cells [2]; [18],98%
Nc1cc(C(F)(F)F)c(-c2cc(N3CCOCC3)nc(N3CCOCC3)n2)cn1 [buparlisib],effect on ACTH secretion,AtT20 cells [4]; buparlisib alone,did not inhibit ACTH secretion
same,Relative Proliferation Rate,AtT20 cells [15]; buparlisib 62.5 nM alone,1.0±0.06
same,IC50,AtT20 cells [8]; [20],500 nM
same,effect on POMC transcription,[11],increased POMC transcription at higher doses
Cc1[nH]c2ccccc2c1CCNCc1ccc(/C=C/C(=O)NO)cc1 [panobinostat],EC50,AtT20 cells [4],4 nM
same,ACTH secretion,"AtT20 cells [4]; panobinostat 5 nM alone, Veh 39.6±2",28.7 ± 0.1 ng/mL
same,ACTH secretion,"AtT20 cells [4]; panobinostat 10 nM alone, Veh 39.6±2",13.6 ± 1 ng/mL
same,inhibition of ACTH secretion,AtT20 cells [4]; panobinostat 5 and 10 nM alone,up to 66%
same,Relative Proliferation Rate,AtT20 cells [15]; panobinostat 5 nM alone,1.0±0.01
same,Relative Proliferation Rate,AtT20 cells [15]; panobinostat 10 nM alone,0.8±0.005
same,IC50,AtT20 cells [8]; [19],20 nM
